Data from paper PMC10746543, “Design principles for cyclin K molecular glue degraders” (Nature Chemical Biology, 2023).
Several values for one entry are separate records, joined by “and”; a condition that tells them apart may be missing. Equal entries are not always repeated. Where two headings read alike, the source gives them in different places.

What was measured:
[1] = target: T1, CDK12–cyclin K and DDB1 (Homo sapiens, UniProt Q16531+Q9NYV4, K965R); test: TR-FRET ternary complex formation assay (compound titration); assay type: binding
T1 construct: His6–CDK12 (a.a. 713–1,052); full-length or beta-propeller B domain deletion (ΔBPB: a.a. 396–705 deleted) constructs of His6–DDB1ΔBPB, StrepII–Avi–DDB1, or His6–Spy–DDB1; made in house; host or cells: Trichoplusia ni High Five insect cells (baculovirus)
T1 sequence (Q9NYV4 713-1052 K965R): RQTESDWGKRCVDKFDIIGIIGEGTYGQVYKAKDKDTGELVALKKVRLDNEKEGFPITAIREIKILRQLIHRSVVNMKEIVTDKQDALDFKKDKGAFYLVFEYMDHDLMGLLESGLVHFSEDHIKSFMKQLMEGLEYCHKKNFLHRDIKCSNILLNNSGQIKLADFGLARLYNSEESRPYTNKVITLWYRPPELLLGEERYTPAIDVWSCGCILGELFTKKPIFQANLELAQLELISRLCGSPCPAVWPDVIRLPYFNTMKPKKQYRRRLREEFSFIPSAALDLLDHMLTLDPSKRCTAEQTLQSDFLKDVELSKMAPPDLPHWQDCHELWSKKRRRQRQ
T1 sequence (O75909 1-267 partner): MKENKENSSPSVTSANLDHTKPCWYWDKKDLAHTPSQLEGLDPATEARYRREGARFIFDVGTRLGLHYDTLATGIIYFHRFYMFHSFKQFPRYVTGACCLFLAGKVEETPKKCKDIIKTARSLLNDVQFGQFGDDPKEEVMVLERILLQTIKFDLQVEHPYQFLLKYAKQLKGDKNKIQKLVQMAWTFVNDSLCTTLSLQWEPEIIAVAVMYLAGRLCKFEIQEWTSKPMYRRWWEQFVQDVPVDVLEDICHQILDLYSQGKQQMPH
T1 sequence (Q16531 whole entry): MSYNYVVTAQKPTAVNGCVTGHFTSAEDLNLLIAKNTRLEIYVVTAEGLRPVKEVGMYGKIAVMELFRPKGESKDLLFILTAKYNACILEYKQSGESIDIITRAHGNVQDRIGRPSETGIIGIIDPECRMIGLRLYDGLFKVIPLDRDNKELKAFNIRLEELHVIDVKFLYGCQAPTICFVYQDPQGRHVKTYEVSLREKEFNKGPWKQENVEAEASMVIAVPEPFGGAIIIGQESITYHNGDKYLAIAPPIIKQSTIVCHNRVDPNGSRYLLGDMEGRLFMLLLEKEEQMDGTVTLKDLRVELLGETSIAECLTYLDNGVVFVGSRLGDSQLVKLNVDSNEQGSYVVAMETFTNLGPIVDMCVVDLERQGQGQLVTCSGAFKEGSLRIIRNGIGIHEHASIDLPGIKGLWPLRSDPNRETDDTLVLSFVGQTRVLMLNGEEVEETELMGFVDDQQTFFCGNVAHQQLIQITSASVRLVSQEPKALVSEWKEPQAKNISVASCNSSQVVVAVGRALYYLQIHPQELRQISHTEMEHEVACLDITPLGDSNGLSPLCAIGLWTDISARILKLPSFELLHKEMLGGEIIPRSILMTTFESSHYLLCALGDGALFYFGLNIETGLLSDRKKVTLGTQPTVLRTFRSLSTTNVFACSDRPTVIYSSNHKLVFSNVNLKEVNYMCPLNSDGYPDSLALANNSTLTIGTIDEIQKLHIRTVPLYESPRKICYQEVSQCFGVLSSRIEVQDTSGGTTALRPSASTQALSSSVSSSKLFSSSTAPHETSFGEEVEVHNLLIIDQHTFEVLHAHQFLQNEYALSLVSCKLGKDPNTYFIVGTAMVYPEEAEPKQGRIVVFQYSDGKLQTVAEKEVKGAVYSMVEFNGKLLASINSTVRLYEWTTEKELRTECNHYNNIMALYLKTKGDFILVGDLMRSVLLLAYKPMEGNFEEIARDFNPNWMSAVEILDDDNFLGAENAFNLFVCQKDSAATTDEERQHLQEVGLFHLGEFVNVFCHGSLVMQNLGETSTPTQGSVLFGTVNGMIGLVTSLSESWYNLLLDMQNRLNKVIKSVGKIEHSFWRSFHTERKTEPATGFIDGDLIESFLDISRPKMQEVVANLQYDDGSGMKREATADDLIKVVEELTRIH
Method in brief: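 TR-FRET ratio 520/490 nm; 70 μs delay before read to suppress background.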

[2] = target: CDK12–cyclin K (Homo sapiens, UniProt Q9NYV4); test: Lanthascreen kinase binding assay, CDK12; conditions: for Lanthascreen raw signal, sheet CDK12: series r1, duplicates
Chain of CDK12–cyclin K (Q9NYV4 713-1052): as the sequence (Q9NYV4 713-1052 K965R) above, with R253K counted along it
Chain of CDK12–cyclin K (O75909 1-267 partner limits assumed): as the sequence (O75909 1-267 partner) above
Procedure: (§1) Lanthascreen experiments were performed using commercially available reagents (Thermo Fisher) and according to the manufacturer’s instructions.

[3] = target: T2, CDK2–cyclin A (Homo sapiens, UniProt P24941); test: Lanthascreen kinase binding assay, CDK2; conditions: for Lanthascreen signal, sheet CDK2: raw replicates, experiment r1-r11
T2 construct: purchased Thermo Fisher
Procedure: as §1

[4] = test system: HEK293T cells; test: Drug sensitivity assay (CellTiter-Glo viability) with or without MLN4924 pretreatment; assay type: cell-based, human; conditions: Supplementary Table 2; for EC50: Homo sapiens, HEK-293T, HEK293T viability, 72 h, compound alone, read-out: Cellular assays EC50; for Toxicity rescue: MLN4924-mediated cytotoxicity rescue, 10 µM used where n.d.
Method in brief: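 Luminescent ATP read-out (CellTiter-Glo) after 3 days of drug exposure, normalised to DMSO controls. Cells were HEK293T–Cas9, pretreated with 100 nM MLN4924 or DMSO for 2 h before drug dispensing.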

[5] = target: T3, CDK9–cyclin T (Homo sapiens, UniProt P50750); test: Lanthascreen kinase binding assay, CDK9; conditions: for Lanthascreen TR-FRET signal (raw ratio), sheet CDK9: first titration set (r1), duplicates
T3 construct: purchased Thermo Fisher
T3 sequence (P50750 whole entry): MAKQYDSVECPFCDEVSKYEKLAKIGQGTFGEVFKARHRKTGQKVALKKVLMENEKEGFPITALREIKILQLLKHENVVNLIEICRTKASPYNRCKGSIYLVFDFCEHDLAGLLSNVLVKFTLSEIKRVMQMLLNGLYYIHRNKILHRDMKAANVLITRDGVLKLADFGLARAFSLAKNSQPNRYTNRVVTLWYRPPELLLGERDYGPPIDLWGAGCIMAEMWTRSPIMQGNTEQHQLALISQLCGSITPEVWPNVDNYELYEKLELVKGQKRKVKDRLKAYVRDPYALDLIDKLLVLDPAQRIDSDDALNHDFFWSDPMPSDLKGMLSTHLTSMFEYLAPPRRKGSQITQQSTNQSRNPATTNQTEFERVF
T3 sequence (O60563 whole entry partner): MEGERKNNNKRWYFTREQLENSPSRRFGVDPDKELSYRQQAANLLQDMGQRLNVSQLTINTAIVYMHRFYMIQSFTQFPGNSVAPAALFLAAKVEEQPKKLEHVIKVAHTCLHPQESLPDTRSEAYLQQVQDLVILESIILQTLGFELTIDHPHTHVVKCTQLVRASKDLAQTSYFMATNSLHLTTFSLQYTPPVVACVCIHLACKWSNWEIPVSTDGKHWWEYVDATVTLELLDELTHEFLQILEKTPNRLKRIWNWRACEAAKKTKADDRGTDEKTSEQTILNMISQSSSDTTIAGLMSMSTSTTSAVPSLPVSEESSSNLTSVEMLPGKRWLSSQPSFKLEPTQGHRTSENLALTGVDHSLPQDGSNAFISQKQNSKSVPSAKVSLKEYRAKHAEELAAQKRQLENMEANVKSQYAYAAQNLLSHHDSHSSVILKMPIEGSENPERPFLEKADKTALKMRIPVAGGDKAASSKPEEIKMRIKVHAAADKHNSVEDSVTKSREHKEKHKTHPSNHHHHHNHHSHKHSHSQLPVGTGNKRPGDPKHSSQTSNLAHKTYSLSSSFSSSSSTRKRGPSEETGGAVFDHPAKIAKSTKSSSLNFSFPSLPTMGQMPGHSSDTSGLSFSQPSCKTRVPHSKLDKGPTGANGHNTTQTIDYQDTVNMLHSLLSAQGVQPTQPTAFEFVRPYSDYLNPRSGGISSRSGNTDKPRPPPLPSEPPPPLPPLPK
Procedure: as §1

[6] = test system: cyclin K–eGFP degradation reporter; test: Cyclin K reporter stability analysis (dual-color cyclin K–eGFP reporter); assay type: cell-based, human
Method in brief: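 A 5 h treatment of HEK293T–Cas9 cells expressing the degradation reporter preceded flow cytometry; eGFP over mCherry, normalized to DMSO.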

[7] = in vitro complex formation, 50 nM CDK12–cyclin K, 100 nM DDB1, text and figures, read-out: TR-FRET EC50
[8] = sheet MOESM7, read-out: log TR-FRET EC50 (converted)
[9] = Supplementary Table 2, read-out: Lanthascreen IC50 [nM] CDK2
[10] = Supplementary Table 2, read-out: Lanthascreen IC50 [nM] CDK9

O=C(CCn1cnc2ccccc2c1=O)Nc1ccc(Br)cn1 [Z7]
EC50 ([1]; Supplementary Table 2, read-out: TR-FRET EC50 TR-FRET): 0.303 µM | TR-FRET signal ([1]; compound concentration 0.468 nM): 0.3146 and 0.2937 | TR-FRET signal ([1]; compound concentration 2.16 nM): 0.327 and 0.3142 | TR-FRET signal ([1]; compound concentration 3.6 nM): 0.3516 and 0.3492 | TR-FRET signal ([1]; compound concentration 4.68 nM): 0.1778 and 0.177 | TR-FRET signal ([1]; compound concentration 7.92001 nM): 0.4103 and 0.4025 | TR-FRET signal ([1]; compound concentration 15.84 nM): 0.4987 and 0.4962 | TR-FRET signal ([1]; compound concentration 21.6 nM): 0.3031 and 0.3042 | TR-FRET signal ([1]; compound concentration 30.96 nM): 0.6587 and 0.6967 | TR-FRET signal ([1]; compound concentration 36 nM): 0.5003 and 0.5187 | TR-FRET signal ([1]; compound concentration 62.6401 nM): 0.9444 and 1.024 | TR-FRET signal ([1]; compound concentration 79.2001 nM): 0.8582 and 0.8909 | TR-FRET signal ([1]; compound concentration 125.28 nM): 1.324 and 1.444 | TR-FRET signal ([1]; compound concentration 158.4 nM): 1.305 and 1.368 | TR-FRET signal ([1]; compound concentration 244.8 nM): 1.9166 and 1.983 | TR-FRET signal ([1]; compound concentration 309.6 nM): 1.882 and 1.916 | TR-FRET signal ([1]; compound concentration 626.401 nM): 2.43 and 2.4997 | TR-FRET signal ([1]; compound concentration 993.601 nM): 2.9527 and 2.952 | TR-FRET signal ([1]; compound concentration 1252.8 nM): 2.93 and 3.011 | TR-FRET signal ([1]; compound concentration 2001.6 nM): 3.382 and 3.238 | TR-FRET signal ([1]; compound concentration 2448 nM): 3.265 and 3.3741 | TR-FRET signal ([1]; compound concentration 9936.01 nM): 3.59 and 3.595 | TR-FRET signal ([1]; compound concentration 20016 nM): 3.713 and 3.698 | EC50 [1, 7]: 0.303 ± 0.016 µM | EC50 [1, 8]: 0.303 µM | IC50 ([2]; Lanthascreen, average, Extended Data Fig. 8, read-out: CDK12 IC50): > 10000 nM | IC50 ([2]; Supplementary Table 2, read-out: Lanthascreen IC50 [nM] CDK12): > 10000 nM | Lanthascreen raw signal, sheet CDK12 ([2]; compound 1.02544 nM): 0.009993 and 0.009189 | Lanthascreen raw signal, sheet CDK12 ([2]; compound 3.15521 nM): 0.007678 and 0.01017 | Lanthascreen raw signal, sheet CDK12 ([2]; compound 9.46563 nM): 0.008332 and 0.008957 | Lanthascreen raw signal, sheet CDK12 ([2]; compound 31.5521 nM): 0.009201 and 0.006925 | Lanthascreen raw signal, sheet CDK12 ([2]; compound 99.3891 nM): 0.01004 and 0.007454 | Lanthascreen raw signal, sheet CDK12 ([2]; compound 315.521 nM): 0.008681 and 0.00881 | Lanthascreen raw signal, sheet CDK12 ([2]; compound 3155.21 nM): 0.008543 and 0.006433 | Lanthascreen raw signal, sheet CDK12 ([2]; compound 10002 nM): 0.006174 and 0.006044 | Lanthascreen signal, sheet CDK2 ([3]; Compound 1.02544 nM): 0.01007 and 0.009144 | Lanthascreen signal, sheet CDK2 ([3]; Compound 3.15521 nM): 0.0112 and 0.008273 | Lanthascreen signal, sheet CDK2 ([3]; Compound 9.46563 nM): 0.0109 and 0.01003 | Lanthascreen signal, sheet CDK2 ([3]; Compound 31.5521 nM): 0.009356 and 0.009077 | Lanthascreen signal, sheet CDK2 ([3]; Compound 99.3891 nM): 0.01058 and 0.01018 | Lanthascreen signal, sheet CDK2 ([3]; Compound 315.521 nM): 0.009946 and 0.008466 | Lanthascreen signal, sheet CDK2 ([3]; Compound 3155.21 nM): 0.009117 and 0.008683 | Lanthascreen signal, sheet CDK2 ([3]; Compound 10002 nM): 0.008076 and 0.006678 | IC50 ([3]; Lanthascreen, average, Extended Data Fig. 8, read-out: CDK2 IC50): > 10000 nM | IC50 [3, 9]: > 10000 nM | EC50 [4]: > 10 µM | Toxicity rescue [4]: 0% | IC50 [5, 10]: 873 nM | Lanthascreen TR-FRET signal (raw ratio), sheet CDK9 ([5]; compound 1.02544 nM): 0.01205 and 0.01344 | Lanthascreen TR-FRET signal (raw ratio), sheet CDK9 ([5]; compound 3.15521 nM): 0.01275 and 0.01665 | Lanthascreen TR-FRET signal (raw ratio), sheet CDK9 ([5]; compound 9.46563 nM): 0.01222 and 0.01758 | Lanthascreen TR-FRET signal (raw ratio), sheet CDK9 ([5]; compound 31.5521 nM): 0.01391 and 0.02091 | Lanthascreen TR-FRET signal (raw ratio), sheet CDK9 ([5]; compound 99.3891 nM): 0.01184 and 0.01953 | Lanthascreen TR-FRET signal (raw ratio), sheet CDK9 ([5]; compound 315.521 nM): 0.01137 and 0.01786 | Lanthascreen TR-FRET signal (raw ratio), sheet CDK9 ([5]; compound 3155.21 nM): 0.003916 and 0.005427 | Lanthascreen TR-FRET signal (raw ratio), sheet CDK9 ([5]; compound 10002 nM): 0.004637 and 0.003497 | DC50 ([6]; Supplementary Table 2, HEK293T cycK-eGFP reporter, 5 h, read-out: Cellular assays DC50): > 10 µM

CC[C@H](CO)Nc1nc(NCc2nc3c(F)c(F)ccc3[nH]2)c2ncn(C(C)C)c2n1 [DS64]
TR-FRET signal at compound concentration 0.468 nM ([1]; compound concentration 0.468 nM, raw replicate titration data): 0.2748 and 0.2878 | TR-FRET signal at compound concentration 2.16 nM ([1]; compound concentration 2.16 nM, raw replicate titration data): 0.3281 and 0.3452 | TR-FRET signal at compound concentration 3.6 nM ([1]; compound concentration 3.6 nM, raw replicate titration data): 0.4287 and 0.4479 | TR-FRET signal at compound concentration 7.92001 nM ([1]; compound concentration 7.92001 nM, raw replicate titration data): 0.6146 and 0.6538 | TR-FRET signal at compound concentration 15.84 nM ([1]; compound concentration 15.84 nM, raw replicate titration data): 0.9627 and 1.0618 | TR-FRET signal at compound concentration 30.96 nM ([1]; compound concentration 30.96 nM, raw replicate titration data): 1.485 and 1.709 | TR-FRET signal at compound concentration 62.6401 nM ([1]; compound concentration 62.6401 nM, raw replicate titration data): 2.204 and 2.463 | TR-FRET signal at compound concentration 125.28 nM ([1]; compound concentration 125.28 nM, raw replicate titration data): 2.739 and 3.004 | TR-FRET signal at compound concentration 244.8 nM ([1]; compound concentration 244.8 nM, raw replicate titration data): 3.0364 and 3.323 | TR-FRET signal at compound concentration 993.601 nM ([1]; compound concentration 993.601 nM, raw replicate titration data): 3.365 and 3.564 | TR-FRET signal at compound concentration 2001.6 nM ([1]; compound concentration 2001.6 nM, raw replicate titration data): 3.296 and 3.552 | EC50 [1, 7]: 0.041 ± 0.002 µM | EC50 [1, 8]: 0.0409 µM | EC50 ([1]; source data sheet correlations, read-out: TR-FRET EC50): 0.0409 µM | Lanthascreen raw signal, sheet CDK12 ([2]; compound 1.02544 nM): 0.01144 and 0.008554 | Lanthascreen raw signal, sheet CDK12 ([2]; compound 3.15521 nM): 0.008537 and 0.009228 | Lanthascreen raw signal, sheet CDK12 ([2]; compound 9.46563 nM): 0.008646 and 0.00887 | Lanthascreen raw signal, sheet CDK12 ([2]; compound 31.5521 nM): 0.00802 and 0.006596 | Lanthascreen raw signal, sheet CDK12 ([2]; compound 99.3891 nM): 0.007448 and 0.007338 | Lanthascreen raw signal, sheet CDK12 ([2]; compound 315.521 nM): 0.006013 and 0.008259 | Lanthascreen raw signal, sheet CDK12 ([2]; compound 3155.21 nM): 0.007185 and 0.006229 | Lanthascreen raw signal, sheet CDK12 ([2]; compound 10002 nM): 0.005174 and 0.004623 | Lanthascreen signal, sheet CDK2 ([3]; Compound 1.02544 nM): 0.01032 and 0.009036 | Lanthascreen signal, sheet CDK2 ([3]; Compound 3.15521 nM): 0.009561 and 0.01039 | Lanthascreen signal, sheet CDK2 ([3]; Compound 9.46563 nM): 0.01132 and 0.01064 | Lanthascreen signal, sheet CDK2 ([3]; Compound 31.5521 nM): 0.009578 and 0.01231 | Lanthascreen signal, sheet CDK2 ([3]; Compound 99.3891 nM): 0.0112 and 0.01036 | Lanthascreen signal, sheet CDK2 ([3]; Compound 315.521 nM): 0.00859 and 0.007854 | Lanthascreen signal, sheet CDK2 ([3]; Compound 3155.21 nM): 0.006995 and 0.007302 | Lanthascreen signal, sheet CDK2 ([3]; Compound 10002 nM): 0.004999 and 0.005409 | IC50 [3, 9]: 4960 nM | EC50 [4]: 0.527 µM | Toxicity rescue [4]: 971% | IC50 ([5]; Lanthascreen, average, Extended Data Fig. 8, read-out: CDK9 IC50): > 10000 nM | IC50 [5, 10]: > 10000 nM | Lanthascreen TR-FRET signal (raw ratio), sheet CDK9 ([5]; compound 1.02544 nM): 0.01262 and 0.01798 | Lanthascreen TR-FRET signal (raw ratio), sheet CDK9 ([5]; compound 3.15521 nM): 0.01403 and 0.01513 | Lanthascreen TR-FRET signal (raw ratio), sheet CDK9 ([5]; compound 9.46563 nM): 0.01561 and 0.01591 | Lanthascreen TR-FRET signal (raw ratio), sheet CDK9 ([5]; compound 31.5521 nM): 0.01447 and 0.01334 | Lanthascreen TR-FRET signal (raw ratio), sheet CDK9 ([5]; compound 99.3891 nM): 0.01493 and 0.01478 | Lanthascreen TR-FRET signal (raw ratio), sheet CDK9 ([5]; compound 315.521 nM): 0.01351 and 0.01148 | Lanthascreen TR-FRET signal (raw ratio), sheet CDK9 ([5]; compound 3155.21 nM): 0.008801 and 0.0091 | Lanthascreen TR-FRET signal (raw ratio), sheet CDK9 ([5]; compound 10002 nM): 0.004226 and 0.004622 | DC50 ([6]; source data sheet correlations, read-out: DC50): 0.062 µM
